Common to all, as to assay type: cell-based
Series [1] deals with A549, EKVX, H596, H522, Hop-62, H460 and H2023. The series can be described thus: Cytotoxicity assays with docetaxel and ABT-888 in seven lung cancer cell lines. How it is done:
Hypothesizing that PARP-inhibition could induce synergistic cytotoxicity in CHFR expressing lung cancer cell lines, cytotoxicity assays were performed in seven lung cancer cell lines (A549, EKVX, H596, H522, Hop-62, H460 and H2023) using docetaxel and the PARP-inhibitor ABT-888 either alone or in combination.

The next series concerns CHFR. Kind of series: wt-CHFR and CHFR-PBZ* protein levels in transfected Calu-6 cells. The text has this:
To determine if disruption of the CHFR-PARP1 interaction forces CHFR degradation by auto-ubiquitination and subsequent proteasomal degradation, wild-type and the CHFR-PBZ mutant were expressed in the presence and absence of the proteasome inhibitor MG-132 (FIG. 1H) or after the additional deletion of the RING domain (FIG. 1I) in Calu-6 cells.

The target in another series is T1, PARP1-CHFR interaction (Homo sapiens, UniProt Q96EP1).
T1 construct: expressed in transfected cells; CHFR endogenous
T1 sequence (Q96EP1 1-664): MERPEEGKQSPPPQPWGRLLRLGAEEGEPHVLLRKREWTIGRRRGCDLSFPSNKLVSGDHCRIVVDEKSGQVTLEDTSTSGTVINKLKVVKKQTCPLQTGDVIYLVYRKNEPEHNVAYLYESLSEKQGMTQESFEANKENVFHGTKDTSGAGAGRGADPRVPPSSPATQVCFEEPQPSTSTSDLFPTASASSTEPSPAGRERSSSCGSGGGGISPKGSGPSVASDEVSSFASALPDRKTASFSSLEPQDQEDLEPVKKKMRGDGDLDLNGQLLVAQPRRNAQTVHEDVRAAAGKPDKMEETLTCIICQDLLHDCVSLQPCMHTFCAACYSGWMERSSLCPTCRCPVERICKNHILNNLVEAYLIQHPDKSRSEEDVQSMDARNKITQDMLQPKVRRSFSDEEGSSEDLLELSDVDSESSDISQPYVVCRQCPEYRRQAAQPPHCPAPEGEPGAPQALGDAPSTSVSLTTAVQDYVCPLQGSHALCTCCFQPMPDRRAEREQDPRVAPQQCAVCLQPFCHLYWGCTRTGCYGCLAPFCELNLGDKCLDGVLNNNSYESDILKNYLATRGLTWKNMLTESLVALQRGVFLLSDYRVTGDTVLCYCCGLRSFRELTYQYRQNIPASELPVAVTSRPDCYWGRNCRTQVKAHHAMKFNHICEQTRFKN
Kind of series: Glutathione affinity pull-down of GST tagged PARP1 with CHFR in HEK293 cells. Conditions: 10 uM, 16 hours. As to the method:
In an attempt to generate possible lead compounds for the pharmacologic inhibition of the CHFR-PARP1 interaction, a high throughput computational screen of 5,256,508 chemical structures in the MCULE database of purchasable compounds using the AutoDockVina algorithm against the published crystal structure of the CHFR-PBZ domain was performed. The 10 most promising ‘hits’ based on Autodock Vina docking scores (<−9.7) were selected for further characterization. Commercially available compounds were tested for their impact on nuclear CHFR levels (FIG. 3A). Several compounds, including ‘A2’, ‘A3’, ‘A4’ and ‘A6’ decreased CHFR levels assayed by western blotting of whole cell extracts. The impact of the above referenced compounds on the PARP1/CHFR interaction were evaluated. HEK293 cells were transfected with GST tagged PARP1 and the interaction with CHFR determined in pull down assays for those 4 compounds. […] In contrast to treatment with ABT-888, ‘A3’ completely disrupted the interaction between GST-tagged PARP-1 and CHFR (FIG. 3B). […] Since it is possible that the co-immunoprecipitation between PARP-1 and CHFR after ‘A3’ treatment was negative due to the fact that CHFR was degraded, the experiment was repeated after transfection with the Ring-domain deleted ΔR-CHFR construct, which maintained both stable CHFR and PARP1 levels even after treatment with ‘A3’. […]

In another series the test system is A549 cells. The series can be described thus: XTT assays with docetaxel in A549 cells stably transfected with shRNAs. As to the method:
(§1) The functional significance of the interaction between CHFR and PARP1 in antephase checkpoint control and taxane sensitivity was evaluated. HEK293 cells were transfected with a GST-tagged PARP1, synchronized with aphidocholin, and the interaction between GST-tagged PARP1 and CHFR was analyzed at various stages of the cell cycle (FIG. 2A, 2B). […] To determine the effect on taxane sensitivity, XTT assays were performed in A549 cells stably transfected with either shRNAs specifically targeting CHFR or PARP1 or control shRNAs (scrambled or luciferase targeting respectively).
Background: Formazan colour is commonly taken as a measure of viable cells.

For another series, the system named is Calu-6 NSCLC cells. The series can be described thus: XTT assay with docetaxel in transfected Calu-6 cells. The conditions noted are these: docetaxel 72 hours, Calu-6 with wt-CHFR vs empty vector and CHFR-PBZ*, p<0.05. As to the method:
The effect of Docetaxel after 72 hours was established by XTT assay.
In Hela cells, full length, but not PBZ-mutant CHFR has similar cell cycle effects. To determine the functional relevance of the PBZ domain on taxane resistance in NSCLC CHFR deficient CALU-6 cells were transfected with either with full-length CHFR (pDEST40-wt-CHFR) or PBZ mutant CHFR (pDEST40-CHFR-PBZ*).

The subject of a further series is CHFR-PARP1 interaction. The series can be described thus: Interaction between GST-tagged PARP1 and CHFR in synchronized cells. Conditions: microtubular damage induced with docetaxel, G2/M phase. As to the method:
as §1

Peptide text beside a SMILES is read from it. * marks the point of attachment. Cbz = O=C(OCc1ccccc1)*

Take `C[C@]1(c2nc3c(C(N)=O)cccc3[nH]2)CCCN1` [ABT-888]: the “cytostasis, docetaxel combined with ABT-888” value in series [1] (ABT-888 20 uM) is “did not lead to enhanced cytostasis”. Further, the “synergy of docetaxel and ABT-888, cytotoxicity” value in series [1] (seven lung cancer cell lines, alone or in combination) is listed as “Synergy was not observed in any of the cell lines”. In the series with CHFR (Calu-6 cells, wt-CHFR or CHFR-PBZ*), the CHFR protein levels entry is on record as “did not result in altered CHFR protein levels”. The “interaction between PARP1 and CHFR” value at PARP1-CHFR interaction was “nor did it disrupt the interaction between CHFR and PARP-1”.
On to `CC(=O)O[C@@]12CO[C@@H]1C[C@H](O)[C@@]1(C)C(=O)[C@H](O)C3=C(C)[C@@H](OC(=O)[C@H](O)[C@@H](NC(=O)OC(C)(C)C)c4ccccc4)C[C@@](O)([C@@H](OC(=O)c4ccccc4)[C@H]21)C3(C)C` [docetaxel], for which the “sensitivity to docetaxel (XTT)” value with A549 cells (CHFR-deficient A549 cells relative to scrambled control) is recorded as “increased sensitivity to docetaxel”; in the series with A549 cells (PARP1 deficient A549 cells relative to control shRNA), “also showed increased sensitivity to docetaxel”. Also, in the series on Calu-6 NSCLC cells, the “taxane resistance (XTT)” value is on record as “Stable transfection of wt-CHFR increases taxane resistance”. Further, the “interaction between GST-tagged PARP1 and CHFR” value with CHFR-PARP1 interaction is listed as “further enhances this interaction”.
Turning to `CC(C)C[C@@H](C=O)NC(=O)[C@H](CC(C)C)NC(=O)[C@H](CC(C)C)NC(=O)OCc1ccccc1` [MG-132] (Cbz-Leu-Leu-Leu-aldehyde), the “CHFR-PBZ* protein levels” value with CHFR (Calu-6 cells stably transfected with CHFR-PBZ*, proteasomal inhibition) was “increases CHFR-PBZ* protein levels”.

The values above are taken from patent publication US9907797B2, “Combination therapies for overcoming resistance to mitotic agents during chemotherapy” (EMORY UNIVERSITY, priority 2014, dated 2018).
